The values that follow come from the SangsterLogP compilation.

Assay in one data set: not given
Conditions: not given
One may read the logP as a log measure of how a compound divides between an organic and an aqueous phase. `NC1=NCC(COc2ccccc2Cc2ccccc2)O1` (configuration not stated) registered a lipophilicity (logP) of 3.05. Turning to `CCC(C)(C)c1ccc(OCC2CN=C(N)O2)cc1` (configuration not stated), the logP was found to be 3.69.

Another data set in a line: method code SF-HPLC, from DOI: 10.1080/10826079708014133. The following applies: pH 11.0.
What is called logD is lipophilicity at a set pH, counting ionised and neutral species. In the case of `Cc1ccc(OCC2CN=C(N)O2)c(C)c1` (configuration not stated), the logD was found to be 2.23. The same measure, in the same setting: the same measure for `NC1=NCC(COc2cccc(C(F)(F)F)c2)O1` (configuration not stated): 2.35. `CCc1ccc(OCC2CN=C(N)O2)cc1` (configuration not stated) returned a logD of 2.27. The same measure, in the same setting: the same measure for `Cc1cccc(OCC2CN=C(N)O2)c1` (configuration not stated): 1.75; for `Cc1ccc(C)c(OCC2CN=C(N)O2)c1` (configuration not stated): 2.29; for `Cc1cccc(OCC2CN=C(N)O2)c1C` (configuration not stated): 2.25. `NC1=NCC(COc2ccc(-c3ccccc3)cc2)O1` (configuration not stated) showed a logD of 2.8. The same measure, in the same setting: the figure for `Cc1cccc(C)c1OCC1CN=C(N)O1` (configuration not stated) is 2; for `NC1=NCC(COc2cccc(Cl)c2)O1` (configuration not stated) it is 2.09; for `Cc1ccc(OCC2CN=C(N)O2)cc1C` (configuration not stated) it is 2.1.
